Laboratory results from US8987449B2, “Medicine for treating ischemic brain injury and its sequelae, and preparation method thereof” (Haimin Lei, priority 2011, dated 2015).

How the values were obtained:
ICR mice = experiment: Buccal respiration duration of mice after head cutting (4° C. icy water swimming model); type: in vivo, mouse; conditions: control 32.45 ± 5.49
Protocol: ICR mice, half female and half male, weighing 19-21 g, certificate No.: SCXK (Jing) 2006-0009, provided by BeiJing Vital River Laboratories.
LQC-T4, tetramethylpyrazine (TMP), vanillic acid, Nimodipine (ShanDong XinHua Pharmaceutical CO., Ltd, batch No.: 0908164)
160 male ICR mice were divided into 8 groups randomly by weight, each of which contained 20 mice, wherein 0.5% CMC-NA (0.2 ml·10 g^−1) was administrated intragastrically to the blank control group; 6.7 mg·kg^−1 Nimodipine (0.2 ml·10 g^−1) was administrated intragastrically to the positive control group; 100 mg·kg^−1 TMP (0.2 ml·10 g^−1) was administrated intragastrically to the TMP group, three different dosage of 200 mg·kg^−1, 100 mg·kg^−1, 50 mg·kg^−1 were administrated intragastrically to the LQC-T4 (0.2 ml·10 g^−1) group relatively, and 125 mg·kg^−1 TMP+80 mg·kg^−1 vanillitc acid (0.2 ml·10 g^−1) was administrated intragastrically respectively. The medicines were continuously administrated once a day for 10 days.
The literature was referred to: [LiuZhenquan, SunHui, Xuqiuping, etc., Experimental Study on the Brain-Protective Effect of the Effective Fraction of Naoxin Formula in the Mouse Model of with Load-Bearing Swimming in Cold Water, Journal of Beijing University of Traditional Chinese Medicine [J], 2004, 27(4): 54-56] and the method recorded therein was improved. The head was rapidly cut with a scissor at post mortem when the mouse swam in 4° C. icy water for 3 min after the final administration. After head being cut, the buccal respiration duration of mouse was recorded.
The SAS 8.2 statistical software was used to carry out the one-way ANOVA variance analysis and the difference among the groups were compared by t-test.

MCAO rats = experiment: Grip strength test of the forelimb of MCAO rats; type: in vivo, rat; conditions: for Grip value (g) (3 d): model group 317.01 ± 53.81; for Grip value (g) (7 d): model group 285.58 ± 80.02
Text: 140 healthy SD male rats, weighing 280-300 g, provided by Beijing Vital River Laboratories, certificate No.: SCXK (Jing) 2002-2003. Nylon fishing wire, diameter 0.25 mm, German; YLS-13A, grip strength meter for mice and rats, Shandong Science Technology Instrument Station. The method of [Koizumi J, Yoshida […]. Experimental studies of ischemia brain edema, I: A new experimental model of cerebral embolism in rats in which recirculation can be introduced in the ischemic area[J]. […] After the rats were anesthetized and the skin thereof was disinfected by ethanol. By cutting right in the middle of the neck, the right common carotid artery, internal carotid artery and external carotid artery were separated and the common carotid artery and external carotid artery were ligated. The internal carotid artery was clamped with a bulldog clamp. A cut was made at the crotch of the external carotid artery and the internal carotid artery followed by releasing the bulldog clamp. […] Next, the external carotid artery was ligated and the nylon wire was fixed. In sham operation group, the right common carotid artery, the external carotid artery and the internal carotid artery were only exposed and separated. The rats were routinely raised in different cages. 0.5 ml penicillin was continuously injected into every mouse for three days after the surgery. […] The rats getting 1-3 point were selected for the subsequent experiment. The MCAO rats having the same point were distributed randomly and averagely to each experimental group. […] Evaluated was the change of the grip strength of the forelimb after the cerebral ischemia. A rat was put onto the pulling board making the forepaws thereof grab the cross bar. Then the tester pulled the rat backward to make its body slide backward along the board until the release of the forepaws (during this process it was made sure that the waist of the rat carried no force). The biggest grip strength was read when the forepaws released. Test was carried out twice for every rat and the bigger value was taken. The third and the seventh days after the administration were as the observation time to carry out the test. The SPSS 11.0 software pack was used to carry out the statistical analysis of all the data. The comparison of the enumeration data was carried out with X^2 test P<0.05 had statistical meaning.

SOD = SOD of MCAO rats (brain homogenate, kit); type: in vivo, rat; conditions: model group 40.28 ± 7.51
Protocol: 10% chloral hydrate 0.35 g/kg was injected into the abdominal cavity of a rat to anesthetize thereof. The rat was fixed as supine position. The skin was disinfected thereof by 75% medical alcohol. It was cut right in the middle of the neck. The right common carotid artery, internal carotid artery and external carotid artery were separated and the common carotid artery and external carotid artery were ligated. The internal carotid artery was clamped with a bulldog clamp. A cut was made at the crotch of the external carotid artery and the internal carotid artery followed by releasing the bulldog clamp. The nylon wire (diameter 0.25 mm, marked at a distance of 18 mm from the head end) was inserted into the cut and the insertion was stopped when some resistance was felt. The insert depth was a little longer than 18 mm to achieve the cerebral ischemia caused by middle cerebral artery occlusion. The internal carotid artery was ligated and the nylon wire was fixed. The muscle and skin were sutured layer by layer. In sham operation group, the right common carotid artery, the external carotid artery and the internal carotid artery were only exposed and separated. The rats were conventionally raised in different cages regularly. 0.5 ml penicillin was continuously injected into every rat for three days after the surgery.
The rats were divided into 7 groups in the experiment, that is, sham operation group, model group, Nimodipine group, LQC-T4 large dosage group, LQC-T4 small dosage group, TMP group, and TMP+Vanillic acid group. The model rats getting 1 point were distributed randomly into the model group and other administration group, while the rats getting 2 point and 3 point were distributed randomly into above 6 groups according the above method and sham operation group was not involved in the above grouping. 0.5% CMC-NA (1 ml·100 g^−1) was administrated intragastrically to the blank control group and the model group, two dosage group of 120 mg·kg^−1, 60 mg·kg^−1 were administrated intragastrically to the LQC-T4 (1 ml·100 g^−1) group, and 74 mg·kg^−1 TMP+46 mg·kg^−1 vanillitc acid (1 ml·100 g^−1) were administrated intragastrically, once per day continuously for 10 days.
10% chloral hydrate 0.35 g/kg was injected into the abdominal cavity to anesthetize them after the rats were administrated for 10 days. The head was cut and the brain was taken. The cranial bones were stripped, the meninges were peeled off to separate the ischemia side of the brain, the blood streak was striped and then the brain was weighed. 4 times amount of 0.9 physiological saline was added and the brain was homogenized in 0° C. ice bath. […]
It was detected with 722 type visible spectrophotometer according to the kit operation. […]

[1] = 60 mg/kg intragastrically once a day
[2] = 120 mg/kg intragastrically once a day

`Cc1nc(C)c(C)nc1C` [TMP, tetramethylpyrazine, reference compound] was tested, and the “respiration duration” value (ICR mice; 125 mg/kg intragastrically once a day for 10 days) was 37.26 ± 5.99 s, the “Grip value (g) (3 d)” value (MCAO rats; 37 mg/kg once a day) was 415.19 ± 26.81 g and the “Grip value (g) (7 d)” value (MCAO rats; 37 mg/kg once a day) was 434.22 ± 50.23 g. The SOD (SOD; 37 mg/kg once per day for 10 days) was 61.58 ± 16.23.
`COc1cc(C(=O)OCc2nc(C)c(C)nc2C)ccc1OCc1nc(C)c(C)nc1C` [LQC-T4, (3,5,6-trimethylpyrazine-2-yl)methyl 3-methoxy-4-((3,5,6-trimethylpyrazine-2-yl)methoxy) benzoate] was tested, and the “respiration duration” value (ICR mice; 50 mg/kg intragastrically once a day for 10 days) was 36.78 ± 5.40 s, the “respiration duration” value (ICR mice; 100 mg/kg intragastrically once a day for 10 days) was 36.07 ± 3.15 s and the “respiration duration” value (ICR mice; 200 mg/kg intragastrically once a day for 10 days) was 35.91 ± 4.25 s. For the same compound, the “Grip value (g) (3 d)” value (MCAO rats; [1]) was 395.50 ± 16.88 g, the “Grip value (g) (7 d)” value (MCAO rats; [1]) was 468.81 ± 78.14 g and the “Grip value (g) (3 d)” value (MCAO rats; [2]) was 386.57 ± 42.35 g. For the same compound, the “Grip value (g) (7 d)” value (MCAO rats; [2]) was 421.68 ± 59.87 g, the SOD (SOD; 60 mg/kg intragastrically once per day for 10 days) was 75.29 ± 30.08 and the SOD (SOD; 120 mg/kg intragastrically once per day for 10 days) was 85.03 ± 56.03.
`COCCOC(=O)C1=C(C)NC(C)=C(C(=O)OC(C)C)C1c1cccc([N+](=O)[O-])c1` (centres unmarked) [Nimodipine, reference compound] was tested, and the “respiration duration” value (ICR mice; 6.7 mg/kg intragastrically once a day for 10 days) was 37.23 ± 5.37 s, the “Grip value (g) (3 d)” value (MCAO rats; 30 mg/kg once a day) was 409.08 ± 65.13 g and the “Grip value (g) (7 d)” value (MCAO rats; 30 mg/kg once a day) was 393.08 ± 59.61 g. For the same compound, the SOD (SOD; 30 mg/kg once per day for 10 days) was 79.85 ± 36.57.
